Experimental data from patent US8415296B2, “Oxyntomodulin peptide analogue” (Eli Lilly and Company, priority 2009, dated 2013).
Marks after values point to notes of the source that are not given here.

Experiments:
Type in all cases: in vivo
[1] = Intraperitoneal glucose tolerance test after 2-week treatment in DIO mice; details: ip glucose load 2 g/kg, 0 to 120 min
Procedure: (§1) Fifty-six hours after the fifth injection as described in Example 7 in DIO mice, mice are fasted for 16 hours prior to the start of the glucose tolerance test. At time 0, animals are given 2 g/kg dextrose by oral gavage (Table 3, Study 1) or intraperitoneal (IP) injection (Table 4, Study 2). Blood is collected by tail vein bleeding at 0, 15, 30, 60 and 120 minutes after glucose challenge. Glucose concentration is measured by glucometer.

[2] = Oral glucose tolerance test after 2-week treatment in DIO mice; details: for Glucose AUC, MEAN: oral glucose load 2 g/kg, 0 to 120 min
Procedure: as §1

[3] = Oral glucose tolerance test in ob/ob mice; details: for Glucose AUC, MEAN: OGTT, 0 to 120 min
Procedure: (§2) Two to three months old male ob/ob mice are individually housed in a temperature-controlled (24° C.) facility with a 12 hour light/dark cycle (lights on 2200 hours), and have free access to food and water. After at least 2 weeks of acclimation to the facility, 3-hours fasting blood glucose is measured by tail vein bleeding at 9 AM. Mice with blood glucose under 180 mg/dL are not used. Remaining animals are randomized to treatment groups (N=7/group), each group having similar average blood glucose level. The mice are given access to food until the time of injection. […] Food is removed at the time of injection. An OGTT (Table 7) or IPGTT (Table 8) is performed 16 hours after the peptide injection. At time 0, animals are given 2 g/kg dextrose by oral gavage (Table 7) or intraperitoneal injection (Table 8). Blood is collected by tail vein bleeding at 0, 15, 30, 60 and 120 minutes after glucose challenge. Blood glucose concentration is measured by glucometer.

[4] = Food intake, body weight and body composition in diet-induced obese (DIO) mice; details: for reduction of cumulative food intake compared to the vehicle group: end of 2-week study; for Fat mass loss (g fat weight change for 14 days) / Overall weight loss (g weight change for 14 days) / Total food intake (g total for 14 days): mean ± SEM
Procedure: Three to four months old male diet-induced obese (DIO) mice are individually housed in a temperature-controlled (24° C.) facility with a 12 hour light/dark cycle (lights on 22:00), and have free access to food and water. After 2 weeks acclimation to the facility, mice are randomized to treatment groups (n=8-10/group), each group having similar mean body weight and fat mass. Mice are subcutaneously (sc) injected with vehicle solution and weighed for 2 days to acclimate them to the procedures.
Body weight and the weight of food plus the hopper are measured at the same time. Food consumed in the preceeding 24 hours is calculated by subtracting current weight of food plus the hopper from that of the previous day. Absolute changes in body weight are calculated by subtracting the body weight of the animal prior to the first injection. On days 1 and 14 total fat mass is measured by nuclear magnetic resonance (NMR) using an Echo Medical System (Houston, Tex.) instrument. Fat free mass is calculated by subtracting fat mass from total body weight.

[5] = Intraperitoneal glucose tolerance test in ob/ob mice; details: IPGTT, 0 to 120 min, 7.5 nmole/kg 16 hours before
Procedure: as §2

[6] = Intraperitoneal glucose tolerance test in lean mice; details: IPGTT; for Glucose AUC, MEAN: 0 to 30 min; for Insulin AUC, MEAN: plasma insulin 0 to 30 min
Procedure: Nine week old male C57BL/6 mice are used in the study Animals are randomized into groups based on fed body weight. […] Food is removed at the time of injection of peptide or vehicle. At time 0, animals are given 2 g/kg dextrose by IP injection. Blood is collected by tail vein bleeding at 0, 3, 6, 12 and 30 minutes after glucose challenge. Glucose concentration is measured by glucometer. Insulin is measure by Mesoscale.

[7] = Study 1, DIO mice, 7.5 nmole/kg sc every 3 days
[8] = Study 1, DIO mice, 15 nmole/kg sc every 3 days
[9] = Study 1, DIO mice, 30 nmole/kg sc every 3 days
[10] = Study 2, DIO mice, 7.5 nmole/kg sc every 3 days
[11] = Study 2, DIO mice, 22.5 nmole/kg sc every 3 days

Substance: His-(D-Ser)-Gln-Gly-Thr-Phe-Thr-Ser-Asp-(1-Nal)-Ser-Lys-Tyr-Leu-Asp-Glu-Lys-Ala-Ala-Gln-Glu-Phe-Val-Gln-Trp-Leu-Leu-Asn-(Aib)-Ala-Arg-Asn-Arg-Asn-Asn-Ile-Ala-Cys(20 kDa PEG)-Cys(20 kDa PEG)
- Glucose AUC, MEAN ([1]; 7.5 nmole/kg): 19198* mg*min/dL
- Glucose AUC, MEAN ([1]; 22.5 nmole/kg): 15720* mg*min/dL
- blood glucose at all time points before and after the oral glucose challenge vs vehicle ([2]; all doses): significantly lowered
- Glucose AUC, MEAN ([2]; 7.5 nmole/kg): 13802* mg*min/dL
- Glucose AUC, MEAN ([2]; 15 nmole/kg): 12668* mg*min/dL
- Glucose AUC, MEAN ([2]; 30 nmole/kg): 13056* mg*min/dL
- Glucose AUC, MEAN ([3]; 7.5 nmole/kg 16 hours before): 12103* mg*min/dL
- Glucose AUC, MEAN ([3]; 15 nmole/kg 16 hours before): 14837* mg*min/dL
- blood glucose in ob/ob mice ([3]; single injection): normalized blood glucose
- cumulative weight loss compared to the vehicle group ([4]; Study 1, 7.5 nmole/kg every 3 days, 2 weeks): about 6%
- vehicle controlled cumulative weight loss ([4]; Study 1, 15 nmole/kg every 3 days, 2 weeks): 10%
- reduction of cumulative food intake compared to the vehicle group ([4]; Study 1, 15 nmole/kg): 21%
- vehicle controlled cumulative weight loss ([4]; Study 1, 30 nmole/kg every 3 days, 2 weeks): 15%
- reduction of cumulative food intake compared to the vehicle group ([4]; Study 1, 30 nmole/kg): 27%
- Fat mass loss (g fat weight change for 14 days) [4, 7]: -1.1 ± 0.3 g
- Overall weight loss (g weight change for 14 days) [4, 7]: -1.7 ± 0.3 g
- Total food intake (g total for 14 days) [4, 7]: 36.5 ± 1.2 g
- Fat mass loss (g fat weight change for 14 days) [4, 8]: -2.7 ± 0.2 g
- Overall weight loss (g weight change for 14 days) [4, 8]: -3.5 ± 0.3 g
- Total food intake (g total for 14 days) [4, 8]: 31.4 ± 0.9 g
- Fat mass loss (g fat weight change for 14 days) [4, 9]: -4.0 ± 0.3 g
- Overall weight loss (g weight change for 14 days) [4, 9]: -5.6 ± 0.4 g
- Total food intake (g total for 14 days) [4, 9]: 29.0 ± 1.3 g
- Fat mass loss (g fat weight change for 14 days) [4, 10]: -1.6 ± 0.2 g
- Overall weight loss (g weight change for 14 days) [4, 10]: -2.5 ± 0.3 g
- Total food intake (g total for 14 days) [4, 10]: 33.3 ± 0.6 g
- Fat mass loss (g fat weight change for 14 days) [4, 11]: -3.8 ± 0.2 g
- Overall weight loss (g weight change for 14 days) [4, 11]: -5.2 ± 0.2 g
- Total food intake (g total for 14 days) [4, 11]: 28.7 ± 0.6 g
- decrease of body weight ([4]; Study 2, high dose (22.5 nmole/kg) every 3 days, 2 weeks): ~10%
- decrease of body weight ([4]; Study 2, low dose (7.5 nmole/kg) every 3 days, 2 weeks): about 5%
- Glucose AUC, MEAN [5]: 16944* mg*min/dL
- Glucose AUC, MEAN ([6]; 5 nmole/kg 16 hours before): 6287* mg*min/dL
- Glucose AUC, MEAN ([6]; 15 nmole/kg 16 hours before): 6881* mg*min/dL
- Insulin AUC, MEAN ([6]; 5 nmole/kg): 33.29* ng*min/mL
- Insulin AUC, MEAN ([6]; 15 nmole/kg): 58.32* ng*min/mL
